What was measured:
patients with GAD [1] = conditions: cited from earlier work
[2] = system: patients with treatment resistant major depression; test: Example 24: augmentation of antidepressant therapy, quetiapine versus lithium, 56 days
Procedure: The study compared tolerability and efficacy. […] Lithium was initiated at 600 mg/day, and maintained over Week 1 and 2 and subsequently adjusted to attain a level of 0.8-1.2 mmol/L. Lithium levels were taken weekly.
A total of 20 patients were randomized to 1 of the 2 treatment groups. The study population included men and women aged 18-65 years, with a diagnosis of major depression according to DSM-IV, Hamilton Depression Rating Scale (HAM-D)≧20 and a Clinical Global […] (CGI) score ≧4.
Patients were evaluated at baseline and then on days 7, 14, 28, 42, and 56 using the HAM-D, Montgomery-Asberg […] (MADRS), SAS, and Widlocher Psychomotor Retardation Scale.

[3] = system: patients resistant to anti-depressant treatment; conditions: within 4 weeks; adjunct to anti-depressant therapy; cited from earlier work
patients with GAD [4] = conditions: cited from earlier work; remark: listed apart in the source
[5] = add-on to antidepressant, mean doses quetiapine 430 mg/day, lithium 825 mg/day

## Fc1ccc([C@@H]2CCNC[C@H]2COc2ccc3c(c2)OCO3)cc1 [paroxetine]
Patients with GAD [1]; placebo 30%
  percent remission: 70%
Patients with GAD [1]; relapse = increase in CGI-S score of at least 2 points to >=4, or withdrawal from lack of efficacy, placebo 39.9%
  relapse: 10.9%

## [Li] [lithium]
[2]; add-on to antidepressant
  Widlocher Psychomotor Retardation Scale mean baseline score: about 22
  Widlocher Psychomotor Retardation Scale mean score after treatment: about 15
  mean MADRS score after Day 7 up to Day 56 (end value): about 22
[2]; [5]
  mean HAM-D score at Day 56: about 15
  mean HAM-D score, start value of 'From Day 7 to 56': about 28
[2]; after 56 days
  patients in remission (HAM-D): 40%
  patients who responded (MADRS): 50%
  patients who responded to treatment (HAM-D): 50%
[2]; at 56 days
  patients who achieved remission (MADRS): 30%
[3]
  patients who respond: ~50%

## COc1ccc(C(CN(C)C)C2(O)CCCCC2)cc1 (stereo not shown) [Venlafaxine XR, venlafaxine]
Patients with GAD [4]; at 6 months, another long-term study
  change in HAM-A total score compared to placebo: 5.4
Patients with GAD [4]; long-term study, s.d.=7.5
  difference in HAM-A total score: 4.18 points

## CN[C@H]1CC[C@@H](c2ccc(Cl)c(Cl)c2)c2ccccc21 [sertraline+placebo, sertraline]
Patients with PTSD; 8 weeks
  mean improvement (decrease) from baseline to endpoint in CAPS total score: about 53
Patients with PTSD; after 8 weeks of treatment, disparity not seen with LOCF analysis
  patients still meeting PTSD diagnostic criteria: 37%
Patients with PTSD; in vivo
  CGI-I scores: significant increase
  mean HAM-D scores and CGI-S scores, baseline to endpoint: decreased significantly
Patients with PTSD; of 59 in the study
  patients that experienced at least one AE: 31 patients
